In patent US9486524B2, “Composition for eliciting a specific CTL response, comprising a lympho-ablative compound and a molecule that contains antigenic sequences and targets professional antigen presenting cells” (priority 2006, dated 2016):

Legend:
Assay type in all cases: in vivo, C57BL/6 mice
[1] = test system: peripheral blood lymphocytes (CD4+, CD8+, CD49d+ and B220+); experiment: Peripheral blood lymphocyte depletion induced by immunosuppressive treatment (Example 2); details: after onset of treatment; Fludarabine 100 mg/kg/day ip for 6 days
Experimental: Kinetic of the number of lymphocytes (CD4+, CD8+, CD49d+ and B220+) in peripheral blood following i.p. injection of 100 mg/kg/day Fludarabine for 6 days or following a single i.p. injection of 20 mg/kg ATG. Controls are injected with PBS or with 20 mg/kg of normal rabbit serum (NRS)
(§1) Blood sampling was performed by tail bleeding.
(§2) Blood, lymph node cells and splenocytes were processed according to previously described methods (28, 29) for numeration and flow cytometry assisted phenotyping. Blood lymphocytes were counted using Trypan blue.
Mouse ATG were prepared by injecting a rabbit sc with 5×10^8 thymocytes sampled on 6-weeks old C57BL/6 mice. This immunization was boosted 14 days later with an iv injection of identical material. Seven days later the animal was bled and serum IgG were purified on immobilized protein G column (Pierce). Purity was controlled by SDS PAGE analysis and quantity was estimated by the Bradford method with known concentration rabbit IgG as standards. Rabbit ATG was used at a concentration of 20 mg/kg with a single injection. As a control, normal rabbit serum was used.
Fludarabine (Sigma) was used at a concentration of 100 mg/kg/day for 6 days. Monoclonal antibodies: anti-CD4-APC, anti-CD8-PerCP, anti-B220-FITC and anti-CD49d (Pan NK)-PE were obtained from BD Biosciences.

[2] = test system: CD4, CD8 and B220 cells in the spleen and lymph nodes; experiment: Lymphocyte depletion in lymphoid organs, phenotyping of spleen and lymph nodes (Example 1, Table 1); details: 10 days after onset of immunosuppressive treatment; ATG 20 mg/kg single ip, fludarabine 200 mg/kg/day ip 6 days
Experimental: as §1
Blood, lymph node cells and splenocytes were processed according to previously described methods (28, 29) for numeration and flow cytometry assited phenotyping. Blood lymphocytes were counted using Türk blue.
The blood compartment represents only 1 to 2% on the total body lymphoid mass. Lymphocyte depletion by phenotyping for T and B cells, spleen and lymph nodes 10 days after onset of immunosuppression has been monitored. Similarly to the situation in the blood compartment, ATG- and fludarabine-based immunosuppressive therapies induced a depletion of the T lymphocyte pool in lymphoid organs (Table 1).
Peripheral lymphoid organs were sampled 10 days after onset of immunosuppressive treatment administration. Values presented are the percentages of CD4, CD8 and B220 cells observed in the spleen and lymph nodes.

[3] = test system: CD4, CD8, CD49d and B220 cells in the spleen and maxillary lymph nodes; experiment: Lymphocyte depletion in lymphoid organs, phenotyping of spleen and maxillary lymph nodes (Example 2, Table 2); details: 14 days after onset of treatment, ATG 20 mg/kg single ip, Fludarabine 100 mg/kg/day ip 6 days
Experimental: as §1, §2
The blood compartment represents only 1 to 2% on the total body lymphoid mass. The Inventors therefore monitored lymphocyte depletion by phenotyping for T and B cells, spleen and lymph nodes 14 days after onset of immunosuppression. Compared to controls (PBS and NRS) Fludarabine- and ATG-based immunosuppressive therapies induced modifications of lymphocyte proportion in lymphoid organs (Table 2).
Peripheral lymphoid organs were sampled 14 days after onset of immunosuppressive treatment administration. Values presented are the percentages of CD4, CD8, CD49d and B220 cells observed in the spleen and maxillary lymph nodes, and the absolute values of CD4, CD8, CD49d and B220 by reference to the number of lymphocytes contained in each organ.

MCa32A cells = experiment: Tumor rejection model, MC38 murine colon adenocarcinoma cells expressing CEA (Example 2)
Experimental: as §1
MC32aCEA cells expressing CEA protein were obtained from Pr. W. Zimermann (LTI, Munich). These cells are derived from the MC38 murine colon adenocarcinoma (48).

[4] = test system: CEA-specific IFN-γ producing CD8+ cells; experiment: γ-IFN ELISpot assay of CEA-specific CD8+ cells after immunization (Example 2)
Experimental: […] Seven days after last immunization, CEA-specific IFN-γ producing CD8+ cells were detected by ex vivo ELISpot assay using 1 μg/ml CEA pepscan. Data are expressed as the median numbers of γ-IFN spot forming colonies, SFC (n=3).
ATG- or Fludarabine-based immunosuppressive treatments were applied to animals 7 days prior to prime boost immunization with recombinant proteins. Immunizations performed iv with equimolar amounts of indicated recombinant proteins (50 μg for CyaAs, 19.2 μg for His-tag CEA) in presence of 10 μg CpG, were boosted id 7 days later with 10 μg of similar material (3.8 μg for His-tag CEA) and 2 μg of CpG. Seven days after last immunization, CEA-specific IFN-γ producing CD8+ cells were detected by ex vivo ELISpot assay using 1 μg/ml CEA pepscan. Data are expressed as the median numbers of γ-IFN spot forming colonies, SFC (n=2).
Multiscreen filtration plates (96 wells; Millipore, France) were coated with 4 μg/ml of rat anti-mouse gamma interferon (IFN-γ) antibody (clone R4-6A2; PharMingen, San Diego, Calif.), overnight at room temperature. Spleen cells from immunized mice were added to the wells and incubated for 20 h with or without CEA pepscan at 1 μg/ml. […] The number of γ-IFN producing cells was determined by counting the number of spot-forming colonies (SFC) in each well (C.T.L., Germany), and the results were expressed as number of SFC per 1×10^6 splenocytes (20).

Nc1nc(F)nc2c1ncn2[C@@H]1O[C@H](CO)[C@@H](O)[C@@H]1O [Fludarabine]
time for T cell values to return to control groups [1]: ≤ 7 days | percentage of B220+ cells, Lymph nodes [2]: 32.4% | percentage of B220+ cells, Spleen [2]: 54.3% | percentage of CD4+ cells, Lymph nodes [2]: 37.8% | percentage of CD4+ cells, Spleen [2]: 21.9% | percentage of CD8+ cells, Lymph nodes [2]: 20.8% | percentage of CD8+ cells, Spleen [2]: 5.3% | B220+ absolute value, Spleen [3]: 8 10^6 cells/ml | B220+ percentage, Spleen [3]: 42.4% | CD4+ absolute value, Spleen [3]: 3.8 10^6 cells/ml | CD4+ percentage, Spleen [3]: 20.4% | CD8+ absolute value, Spleen [3]: 2.5 10^6 cells/ml | CD8+ percentage, Spleen [3]: 13.4% | CD49d+ absolute value, Spleen [3]: 1.4 10^6 cells/ml | CD49d+ percentage, Spleen [3]: 7.5% | B220+ absolute value, Lymph nodes ([3]; maxillary lymph nodes): 0.3 10^6 cells/ml | B220+ percentage, Lymph nodes ([3]; maxillary lymph nodes): 30.2% | CD4+ absolute value, Lymph nodes ([3]; maxillary lymph nodes): 0.3 10^6 cells/ml | CD4+ percentage, Lymph nodes ([3]; maxillary lymph nodes): 31.3% | CD8+ absolute value, Lymph nodes ([3]; maxillary lymph nodes): 0.3 10^6 cells/ml | CD8+ percentage, Lymph nodes ([3]; maxillary lymph nodes): 35.3% | CD49d+ absolute value, Lymph nodes ([3]; maxillary lymph nodes): 0.03 10^6 cells/ml | CD49d+ percentage, Lymph nodes ([3]; maxillary lymph nodes): 3.8% | size of tumors relative to the other groups (smaller) (MCa32A cells; at the time of CyaA-based immunotherapy): 20 times | survival median of mock-treated animals (MCa32A cells; immunosuppressive treatment 3 days after tumor inoculation, no CEA immunization): 21 to 25 days

B1: His-Tag-CEA: histidine-tagged full length CEA protein, used as control, formulated with CpG (protein, UniProt P06731 1-702, looked up)
chain: MESPSAPPHRWCIPWQRLLLTASLLTFWNPPTTAKLTIESTPFNVAEGKEVLLLVHNLPQHLFGYSWYKGERVDGNRQIIGYVIGTQQATPGPAYSGREIIYPNASLLIQNIIQNDTGFYTLHVIKSDLVNEEATGQFRVYPELPKPSISSNNSKPVEDKDAVAFTCEPETQDATYLWWVNNQSLPVSPRLQLSNGNRTLTLFNVTRNDTASYKCETQNPVSARRSDSVILNVLYGPDAPTISPLNTSYRSGENLNLSCHAASNPPAQYSWFVNGTFQQSTQELFIPNITVNNSGSYTCQAHNSDTGLNRTTVTTITVYAEPPKPFITSNNSNPVEDEDAVALTCEPEIQNTTYLWWVNNQSLPVSPRLQLSNDNRTLTLLSVTRNDVGPYECGIQNELSVDHSDPVILNVLYGPDDPTISPSYTYYRPGVNLSLSCHAASNPPAQYSWLIDGNIQQHTQELFISNITEKNSGLYTCQANNSASGHSRTTVKTITVSAELPKPSISSNNSKPVEDKDAVAFTCEPEAQNTTYLWWVNGQSLPVSPRLQLSNGNRTLTLFNVTRNDARAYVCGIQNSVSANRSDPVTLDVLYGPDTPIISPPDSSYLSGANLNLSCHSASNPSPQYSWRINGIPQQHTQVLFIAKITPNNNGTYACFVSNLATGRNNSIVKSITVSASGTSPGLSAGATVGIMIGVLVGVALI
modifications: full-length His tag
notes: histidine-tagged full length CEA protein, used as control, formulated with CpG
CEA-specific cellular immune responses upon immunization after immunosuppressive treatment ([4]; compared with CyaA-CEAA3B3 + CpG, prime-boost with CpG): Lower CEA-specific cellular immune responses were detected | cellular immune response characterized by γ-IFN secretion ([4]; one single iv administration, with CpG adjuvant, no immunosuppression): neither CyaAΔ-CEAA3B3 nor His-tag-CEA protein formulated with an adjuvant such as CpG, were able to mount a cellular immune response
